# Molecular target: T1, Streptococcus pneumonia UPPS (Streptococcus pneumoniae serotype 4, UniProt Q97SR4)
# T1 construct: His-tag (N); made in house; this is inferred
# T1 sequence (Q97SR4 1-252): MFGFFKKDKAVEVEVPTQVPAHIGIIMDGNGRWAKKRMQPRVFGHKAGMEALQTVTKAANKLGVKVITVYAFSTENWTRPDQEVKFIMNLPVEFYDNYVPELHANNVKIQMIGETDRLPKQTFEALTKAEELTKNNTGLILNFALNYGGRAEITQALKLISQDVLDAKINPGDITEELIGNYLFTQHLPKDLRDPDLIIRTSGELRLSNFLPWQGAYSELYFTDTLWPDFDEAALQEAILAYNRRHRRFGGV
# Assay: UPPS binding/inhibition assay (inorganic phosphate quantified with Biomol Green)
# Type: biochemical
# Settings: 20 min preincubation; FPP 3 μM, IPP 16 μM
# Description: The ability of several of the compounds described herein to bind to UPPS was also tested as follows.
# Streptococcus pneumonia UPPS was cloned into pET-15b, expressed and purified as an N-terminal His-tag fusion using affinity chromatography. The working stock of UPPS was prepared by mixing the purified enzyme with liposome made from E. coli total lipids extract (Avanti Polar Lipis, Inc., Alabaster, Ala.). The substrates FPP and IPP and inorganic pyrophosphatase were purchased from Sigma. Biomol Green reagent was from Biomol International (Plymouth Meeting, Pa.). All other chemicals were from Sigma at the highest grade.
# For testing a compound, UPPS was first incubated with the compound at desired concentrations for 20 minutes in the UPPS reaction buffer that contained 100 mM Tris-HCl, pH 7.3, 50 mM KCl, 1 mM MgCl2, 0.01% Triton X-100, and 20 μg/mL BSA. The reaction was then initiated by the addition of a mixture of FPP, IPP, and E. Coli inorganic phosphatase made in the same UPPS reaction buffer. The final concentrations for FPP and IPP were 3 μM and 16 μM, respectively. The inorganic phosphate generated in the reactions was then quantified with Biomol Green reagent, which was then used to determine the rate of the reaction and the inhibitory activity of the compound.
# For example, the results of the binding assay for several compounds are shown the table below: […]
row,SMILES,IC50
1,CC(C)(C)OC(=O)N1CCC2C(O)=C(C(=O)Nc3ccc(N4CCCC4)cc3)C(=O)NC2C1 (stereo not shown) [compound 54],0.01 to 10 µM
2,O=C(Nc1ccc(N2CCCCC2)cc1)C1=C(O)C2CCNCC2NC1=O (stereo not shown) [compound 49],0.01 to 10 µM
3,O=C(Nc1ccc(N2CCCCC2)cc1)c1c(O)c2c([nH]c1=O)CCNC2 [compound 121],0.01 to 10 µM
4,Cn1c(=O)c(C(=O)Nc2ccc(Oc3ccccc3)cc2)c(O)c2ccccc21 [compound 168],0.01 to 10 µM
5,COc1ccc(-c2nc(NC(=O)c3c(O)c4ccccc4n(C)c3=O)nn2-c2ccc(OC)cc2)cc1 [compound 173],0.01 to 10 µM
6,COc1cccc2[nH]c(=O)c(C(=O)Nc3ccc(Oc4ccccc4)cc3)c(O)c12 [compound 144],> 50 µM
7,O=C(Nc1ccc(C2CCCCC2)cc1)C1=C(O)[C@H]2CNCC[C@@H]2NC1=O [compound 51],0.01 to 10 µM
8,O=C(Nc1ccc(-c2ccccc2)cc1)C1=C(O)[C@H]2CNC[C@@H]2NC1=O [compound 17],0.01 to 10 µM
9,C#CCOC(=O)N1CC[C@@H]2NC(=O)C(C(=O)Nc3ccc(N4CCCCC4)cc3)=C(O)[C@H]2C1 [compound 73],> 50 µM
10,O=C(Nc1ccc(C2CCCCC2)cc1)C1=C(O)[C@H]2CCC[C@H]2NC1=O [compound 45],0.01 to 10 µM
11,O=C(Nc1ccc(-c2ccccc2)cc1)C1=C(O)C2CNCCC2NC1=O (stereo not shown) [compound 26],0.01 to 10 µM
12,CC(C)(C)C1CCC(NC(=O)c2c(O)c3cscc3[nH]c2=O)CC1 (stereo not shown) [compound 11],0.01 to 10 µM
13,CCN1CC[C@@H]2NC(=O)C(C(=O)Nc3ccc(N4CCCCC4)cc3)=C(O)[C@H]2C1 [compound 69],0.01 to 10 µM
14,O=C(Nc1ccc(Oc2ccccc2)cc1)c1c(O)c2ccccc2[nH]c1=O [compound 142],0.01 to 10 µM
15,O=C(Nc1ccc(N2CCCCC2)cc1)c1c(O)c2cc(N3CCNCC3)ccc2[nH]c1=O [compound 179],0.01 to 10 µM
16,O=C(Nc1ccc(-c2ccccc2)cc1)c1c(O)c2cc(Br)ccc2[nH]c1=O [compound 159],0.01 to 10 µM
17,O=C(NC1CCCCCC1)c1c(O)c2c([nH]c1=O)CCCC2 [compound 92],0.01 to 10 µM
18,O=C(Nc1ccc(C2CCCCC2)cc1)c1c(O)c2cscc2[nH]c1=O [compound 4],0.01 to 10 µM
19,CCN1C[C@@H]2NC(=O)C(C(=O)Nc3ccc(C4CCCCC4)cc3)=C(O)[C@H]2C1 [compound 20],0.01 to 10 µM
20,O=C(Nc1ccc(N2CCCC2)cc1)C1=C(O)C2CCNCC2NC1=O (stereo not shown) [compound 61],0.01 to 10 µM
21,O=C(Nc1ccc(N2CCCCC2)cc1)C1=C(O)[C@H]2CNCC[C@@H]2NC1=O [compound 46],0.01 to 10 µM
22,O=C(Nc1ccc(N2CCCCC2)cc1)c1c(O)c2c([nH]c1=O)CNCC2 [compound 120],0.01 to 10 µM
23,O=C(Nc1cccc(Br)c1)c1c(O)c2c([nH]c1=O)CCCC2 [compound 93],> 50 µM
24,CC(C)(C)OC(=O)N1CCC2NC(=O)C(C(=O)Nc3ccc(Oc4ccccc4)cc3)=C(O)C2C1 (stereo not shown) [compound 34],0.01 to 10 µM
25,CCCOC(=O)c1ccc(NC(=O)c2c(O)c3c([nH]c2=O)CCCC3)cc1 [compound 124],0.01 to 10 µM
26,CC(C)(C)C(=O)N1CCc2[nH]c(=O)c(C(=O)Nc3ccc(N4CCCCC4)cc3)c(O)c2C1 [compound 128],0.01 to 10 µM
27,O=C(Nc1ccc(N2CCCCC2)cc1)C1=C(O)C2CCNCC2NC1=O (stereo not shown) [compound 32],0.01 to 10 µM
28,O=C(NCc1ccccc1)c1c(O)c2c([nH]c1=O)CCCC2 [compound 84],0.01 to 10 µM

row,SMILES,IC50
1,CC(=O)N1CCc2[nH]c(=O)c(C(=O)Nc3ccc(N4CCCCC4)cc3)c(O)c2C1 [compound 126],0.01 to 10 µM
2,O=C(Nc1nc2ccc(Br)cc2s1)c1c(O)c2c([nH]c1=O)CCCC2 [compound 104],0.01 to 10 µM
3,CCCCCCOc1ccc(NC(=O)c2c(O)c3cc(-c4ccccc4)sc3[nH]c2=O)cc1 [compound 110],0.01 to 10 µM
4,COc1ccc(-c2nc(NC(=O)c3c(O)c4cscc4[nH]c3=O)nn2-c2ccc(OC)cc2)cc1 [compound 10],0.01 to 10 µM
5,CCCN(CC)c1ccc(NC(=O)c2c(O)c3ccc(N4CCNCC4)cc3[nH]c2=O)cc1 [compound 178],0.01 to 10 µM
6,COCCOC(=O)N1CC[C@@H]2NC(=O)C(C(=O)Nc3ccc(N4CCCCC4)cc3)=C(O)[C@H]2C1 [compound 72],0.01 to 10 µM
7,O=C(Nc1cccc(Cl)c1Cl)c1c(O)c2c([nH]c1=O)CCCC2 [compound 100],> 50 µM
8,O=C(Nc1ccc(N2CCCCC2)cc1)C1=C(O)[C@H]2CNCC[C@H]2NC1=O [compound 47],0.01 to 10 µM
9,O=C(Nc1ccc(C(F)(F)F)nc1)c1c(O)c2ccccc2[nH]c1=O [compound 157],0.01 to 10 µM
10,CC(C)(C)OC(=O)N1CCC2NC(=O)C(C(=O)Nc3ccc(C4CCCCC4)cc3)=C(O)C2C1 (stereo not shown) [compound 29],0.01 to 10 µM
11,O=C(Nc1ccc(C(F)(F)F)cc1)c1c(O)c2cc(-c3ccccc3)sc2[nH]c1=O [compound 111],10 to 50 µM
12,O=C(NNC(=O)c1c(O)c2ccccc2[nH]c1=O)c1ccccc1Cl [compound 131],0.01 to 10 µM
13,O=C(Nc1ccc(C(F)(F)F)cc1)C1=C(O)[C@H]2CCC[C@H]2NC1=O [compound 40],0.01 to 10 µM
14,O=C(Nc1ccc(Oc2ccccc2)cc1)c1c(O)c2cscc2[nH]c1=O [compound 2],0.01 to 10 µM
15,COC(=O)N1CCc2[nH]c(=O)c(C(=O)Nc3ccc(N4CCCCC4)cc3)c(O)c2C1 [compound 129],0.01 to 10 µM
16,O=C(Nc1ccccc1Oc1ccccc1)c1c(O)c2ccccc2[nH]c1=O [compound 162],0.01 to 10 µM
17,O=C(NC1CCCCC1)c1c(O)c2ccccc2[nH]c1=O [compound 137],0.01 to 10 µM
18,CNC(=O)c1ccccc1NC(=O)c1c(O)c2c([nH]c1=O)CCCC2 [compound 98],0.01 to 10 µM
19,CCCN(CC)c1ccc(NC(=O)c2c(O)c3ccc(N4CCN(C)CC4)cc3[nH]c2=O)cc1 [compound 180],0.01 to 10 µM
20,Cn1c(=O)c(C(=O)Nc2ccc(OC(F)(F)F)cc2)c(O)c2ccccc21 [compound 175],0.01 to 10 µM
21,O=C(Nc1ccc(N2CCCCC2)cc1)C1=C(O)C2CNCCC2NC1=O (stereo not shown) [compound 37],0.01 to 10 µM
22,O=C(Nc1ccc(C2CCCCC2)cc1)c1c(O)c2cc(-c3ccccc3)sc2[nH]c1=O [compound 107],0.01 to 10 µM
23,CC(C)(C)OC(=O)N1CCC2NC(=O)C(C(=O)Nc3ccc(N4CCN(CCO)CC4)cc3)=C(O)C2C1 (stereo not shown) [compound 59],0.01 to 10 µM
24,CC(C)CCNC(=O)c1c(O)c2c([nH]c1=O)CCCC2 [compound 87],0.01 to 10 µM
25,O=C(Nc1ccc(Oc2ccccc2)cc1)C1=C(O)C2CNCCC2NC1=O (stereo not shown) [compound 28],0.01 to 10 µM
26,O=C(Nc1ccc(N2CCN(CCO)CC2)cc1)C1=C(O)C2CNCCC2NC1=O (stereo not shown) [compound 64],> 50 µM
27,O=C(NCCN1CCOCC1)c1c(O)c2ccccc2[nH]c1=O [compound 154],0.01 to 10 µM
